# Where a SMILES comes first, the peptide text is derived from it. [ ]: non-standard residue; d: D form. ξ: configuration not given here. ξαMeBip(2'-Et,4'-OMe) = CCc1cc(OC)ccc1-c1ccc(CC(C)(N)C(=O)O)cc1; ξBip(2'-Et-4'-OMe) = CCc1cc(OC)ccc1-c1ccc(CC(N)C(=O)O)cc1; Arg(NO2) = N=C(NCCC[C@H](N)C(=O)O)N[N+](=O)[O-]; ξαMePhe(2-F) = CC(N)(Cc1ccccc1F)C(=O)O; hhPhe = N[C@@H](CCCc1ccccc1)C(=O)O; hArg = N=C(N)NCCCC[C@H](N)C(=O)O; hCit = NC(=O)NCCCC[C@H](N)C(=O)O; ξαMeF = CC(N)(Cc1ccccc1)C(=O)O; ξαMeM = CSCCC(C)(N)C(=O)O; Nle = CCCC[C@H](N)C(=O)O; ξαMeP = CC1(C(=O)O)CCCN1; Ac5c = NC1(C(=O)O)CCCC1; Ac3c = NC1(C(=O)O)CC1; Aib = CC(C)(N)C(=O)O
# Key:
# Assay type in all cases: in vitro ADME
# [1] = Stability of peptides in human plasma; conditions: human, plasma; for metabolised at 24 h, 2 μM: pH 7.8
# Outline: (§1)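 Peptides at 2 μM final incubated 0–24 h at 37 °C (50 mM triethanolamine-HCl, pH 7.8) in each matrix, matrix level set to degrade ~50% PTH(1-34) in 1 h; TFA-quenched, C18 HPLC at 206 nm with ESI-MS peak identification; percent degradation from peak areas at each time point.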
# [2] = Stability of peptides in simulated gastric fluid (pH 1.5; HCl, NaCl and Pepsin); conditions: pH 1.5; for % degradation of peptides in 24 h when incubated with simulated gastric fluid: 2 μM; for half-life (t1/2) in simulated gastric fluid / half-life: simulated gi fluid
# [3] = Stability of peptides in simulated intestinal fluid (pH 7.5); conditions: pH 7.5; for half-life (t1/2) in simulated intestinal fluid / half-life: simulated gi fluid; for % degradation of peptides in 24 h when incubated with simulated intestinal fluid: 2 μM
# Outline: as §1
# [4] = Stability of peptides in human liver microsomes; conditions: human, microsomes; for % degradation of peptides in 24 h when incubated with liver microsomes: 2 μM, pH 7.8
# Outline: as §1
Structure (SMILES),half-life [1] [h],"metabolised at 24 h, 2 μM [1] [%]",% degradation of peptides in 24 h when incubated with simulated gastric fluid [2] [%],half-life (t1/2) in simulated gastric fluid [2],half-life (t1/2) in simulated intestinal fluid [3],% degradation of peptides in 24 h when incubated with simulated intestinal fluid [3] [%],half-life [4] [h],% degradation of peptides in 24 h when incubated with liver microsomes [4] [%],half-life (t1/2) in human plasma [1],half-life [2] [h],half-life [3] [h],half-life (t1/2) in liver microsomes [4]
CCCC[C@H](NC(=O)[C@H](CC(C)C)NC(=O)[C@H](CCC(N)=O)NC(=O)[C@@H](NC(=O)[C@H](CCC(=O)O)NC(=O)C1(NC(=O)[C@@H](NC(=O)C2(N)CC2)C(C)C)CC1)[C@@H](C)CC)C(=O)N[C@@H](Cc1c[nH]cn1)C(=O)N[C@@H](CCC(N)=O)C(=O)N[C@@H](CCCCNC(=N)N)C(=O)N[C@@H](C)C(=O)N[C@@H](CCCCN)C(=O)NC(Cc1ccc(-c2ccc(OC)cc2CC)cc1)C(=O)N[C@@H](CCCc1ccccc1)C(N)=O (some centres unmarked) [Seq. ID. 610] (H-[Ac3c]V[Ac3c]EIQL[Nle]HQ[hArg]AK[ξBip(2'-Et-4'-OMe)][hhPhe]-NH2),8,71,14,(8) h,(6) h,40,1,78,,,,
CCCC[C@H](NC(=O)C(C)(Cc1ccccc1F)NC(=O)[C@H](CCC(N)=O)NC(=O)[C@@H](NC(=O)[C@H](CCC(=O)O)NC(=O)C1(NC(=O)[C@@H](NC(=O)C2(N)CCCC2)C(C)C)CCCC1)[C@@H](C)CC)C(=O)N[C@@H](Cc1c[nH]cn1)C(=O)N[C@@H](CCC(N)=O)C(=O)N[C@@H](CCCCNC(=N)N)C(=O)N1CCCC1(C)C(=O)N[C@@H](CCCCN)C(=O)NC(C)(Cc1ccccc1)C(N)=O (some centres unmarked) [Seq. ID. 34] (H-[Ac5c]V[Ac5c]EIQ[ξαMePhe(2-F)][Nle]HQ[hArg][ξαMeP]K[ξαMeF]-NH2),8,70,15,(8) h,(6) h,41,1,77,,,,
CCc1cc(OC)ccc1-c1ccc(CC(NC(=O)[C@H](CCCCN)NC(=O)[C@H](C)NC(=O)[C@H](CCCCNC(=N)N)NC(=O)[C@H](CCC(N)=O)NC(=O)[C@H](Cc2c[nH]cn2)NC(=O)[C@H](CCSC)NC(=O)[C@H](CC(C)C)NC(=O)[C@H](CCC(N)=O)NC(=O)[C@@H](NC(=O)[C@H](CCC(=O)O)NC(=O)C(C)(C)NC(=O)[C@@H](NC(=O)C2(N)CCCC2)C(C)C)[C@@H](C)CC)C(N)=O)cc1 (some centres unmarked) [Seq. ID. 650] (H-[Ac5c]V[Aib]EIQLMHQ[hArg]AK[ξBip(2'-Et-4'-OMe)]-NH2),8,70,15,(8) h,(6) h,41,1,77,,,,
CCCC[C@H](NC(=O)C(C)(Cc1ccccc1F)NC(=O)[C@H](CCC(N)=O)NC(=O)[C@@H](NC(=O)[C@H](CCC(=O)O)NC(=O)C(C)(C)NC(=O)[C@@H](NC(=O)C1(N)CCCC1)C(C)C)[C@@H](C)CC)C(=O)N[C@@H](Cc1c[nH]cn1)C(=O)N[C@@H](CCC(N)=O)C(=O)N[C@@H](CCCCNC(N)=O)C(=O)NC(C)(C)C(=O)N[C@@H](CCCNC(=N)N[N+](=O)[O-])C(=O)NC(C)(Cc1ccccc1F)C(N)=O (some centres unmarked) [Seq. ID. 460] (H-[Ac5c]V[Aib]EIQ[ξαMePhe(2-F)][Nle]HQ[hCit][Aib][Arg(NO2)][ξαMePhe(2-F)]-NH2),8,71,14,(8) h,(6) h,40,1,78,,,,
CCCC[C@H](NC(=O)[C@H](CC(C)C)NC(=O)[C@H](CCC(N)=O)NC(=O)[C@@H](NC(=O)[C@H](CCC(=O)O)NC(=O)C(C)(C)NC(=O)[C@@H](NC(=O)C(C)(C)N)C(C)C)[C@@H](C)CC)C(=O)N[C@@H](Cc1c[nH]cn1)C(=O)N[C@@H](CCC(N)=O)C(=O)N[C@@H](CCCCNC(N)=O)C(=O)NC(C)(C)C(=O)NC(C)(C)C(=O)NC(Cc1ccc(-c2ccc(OC)cc2CC)cc1)C(=O)N[C@@H](CCCc1ccccc1)C(N)=O (some centres unmarked) [Seq. ID. 790] (H-[Aib]V[Aib]EIQL[Nle]HQ[hCit][Aib][Aib][ξBip(2'-Et-4'-OMe)][hhPhe]-NH2),> 24,0,43,,,00,2,84,,4,> 24,
CC[C@H](C)[C@H](NC(=O)[C@H](CCC(=O)O)NC(=O)C(C)(C)NC(=O)[C@@H](NC(=O)C1(N)CC1)C(C)C)C(=O)N[C@@H](CCC(N)=O)C(=O)N[C@@H](CC(C)C)C(=O)N[C@@H](CCSC)C(=O)N[C@@H](Cc1c[nH]cn1)C(=O)N[C@@H](CCC(N)=O)C(=O)N[C@@H](CCCCNC(=N)N)C(=O)NC(C)(C)C(=O)N[C@@H](CCCCN)C(=O)NC(C)(Cc1ccccc1)C(N)=O (some centres unmarked) [Seq. ID. 14] (H-[Ac3c]V[Aib]EIQLMHQ[hArg][Aib]K[ξαMeF]-NH2),8,69,11,,(6) h,43,2,77,,7,,

# Other lines, results leading:
half-life [1] [h],"metabolised at 24 h, 2 μM [1] [%]",% degradation of peptides in 24 h when incubated with simulated gastric fluid [2] [%],half-life (t1/2) in simulated gastric fluid [2],half-life (t1/2) in simulated intestinal fluid [3],% degradation of peptides in 24 h when incubated with simulated intestinal fluid [3] [%],half-life [4] [h],% degradation of peptides in 24 h when incubated with liver microsomes [4] [%],half-life (t1/2) in human plasma [1],half-life [2] [h],half-life [3] [h],half-life (t1/2) in liver microsomes [4],Structure (SMILES)
,77,100,,,100,0.5,100,(9) h,0.5,0.5,,"CCc1cc(OC)ccc1-c1ccc(CC(C)(NC(=O)[C@H](CCCCNC(=N)N)NC(=O)[C@H](C)NC(=O)[C@H](CCCCNC(=N)N)NC(=O)[C@H](CCC(N)=O)NC(=O)[C@H](Cc2c[nH]cn2)NC(=O)C(C)(CCSC)NC(=O)[C@H](CC(C)C)NC(=O)[C@H](CCC(N)=O)NC(=O)[C@@H](NC(=O)[C@H](CCC(=O)O)NC(=O)C(C)(C)NC(=O)[C@@H](NC(=O)C(C)(C)N)C(C)C)[C@@H](C)CC)C(=O)N[C@@H](CCCc2ccccc2)C(N)=O)cc1 (some centres unmarked) [Seq. ID. 910] (H-[Aib]V[Aib]EIQL[ξαMeM]HQ[hArg]A[hArg][ξαMeBip(2'-Et,4'-OMe)][hhPhe]-NH2)"
> 24,0,00,,,00,,26,,> 24,> 24,(5) h,"CCc1cc(OC)ccc1-c1ccc(CC(C)(NC(=O)[C@H](CCCCNC(=N)N)NC(=O)[C@H](C)NC(=O)[C@H](CCCCNC(=N)N)NC(=O)[C@H](CCC(N)=O)NC(=O)[C@H](Cc2c[nH]cn2)NC(=O)[C@H](CCSC)NC(=O)[C@H](CC(C)C)NC(=O)[C@H](CCC(N)=O)NC(=O)[C@@H](NC(=O)[C@H](CCC(=O)O)NC(=O)C(C)(C)NC(=O)[C@@H](NC(=O)C(C)(C)N)C(C)C)[C@@H](C)CC)C(=O)N[C@@H](CCCc2ccccc2)C(N)=O)cc1 (some centres unmarked) [Seq. ID. 898] (H-[Aib]V[Aib]EIQLMHQ[hArg]A[hArg][ξαMeBip(2'-Et,4'-OMe)][hhPhe]-NH2)"
> 24,0,00,,,00,,35,,> 24,> 24,(5) h,"CC[C@H](C)[C@H](NC(=O)[C@H](CCC(=O)O)NC(=O)C(C)(C)NC(=O)[C@@H](NC(=O)C1(NC(=O)[C@@H](N)C(C)C)CC1)C(C)C)C(=O)N[C@@H](CCC(N)=O)C(=O)N[C@@H](CC(C)C)C(=O)NC(C)(CCSC)C(=O)N[C@@H](Cc1c[nH]cn1)C(=O)N[C@@H](CCC(N)=O)C(=O)N[C@@H](CCCCNC(=N)N)C(=O)N[C@@H](C)C(=O)N[C@@H](CCCCNC(=N)N)C(=O)NC(C)(Cc1c[nH]c2ccccc12)C(=O)NC(C)(CCCc1ccccc1)C(N)=O (single isomer, unassigned) [Seq. ID. 950]"
,78,100,,,100,0.5,100,(9) h,0.5,0.5,,"CCCCC(C)(NC(=O)[C@H](CC(C)C)NC(=O)[C@H](CCC(N)=O)NC(=O)[C@@H](NC(=O)[C@H](CCC(=O)O)NC(=O)C(C)(C)NC(=O)[C@@H](NC(=O)C1(NC(=O)[C@@H](N)C(C)C)CCCC1)C(C)C)[C@@H](C)CC)C(=O)N[C@@H](Cc1c[nH]cn1)C(=O)N[C@@H](CCC(N)=O)C(=O)N[C@@H](CCCCNC(=N)N)C(=O)N[C@@H](C)C(=O)N[C@@H](CCCCNC(=N)N)C(=O)NC(Cc1ccc(-c2ccc(OC)cc2CC)cc1)C(=O)NC(C)(CCCc1ccccc1)C(N)=O (single isomer, unassigned) [Seq. ID. 925]"

# Reference: patent US8383581B2, “Short-chain peptides as parathyroid hormone (PTH) receptor agonist” (Cadila Healthcare Limited, priority 2009, dated 2013)
